# According to US20090326072A1, “USE OF 2-(2-NITRO-4-TRIFLUOROMETHYLBENZOYL)-l,3- CYCLOHEXANEDIONE IN THE TREATMENT OF PARKINSON'S DISEASE” (priority 2005, published 2009):
# “Also recorded” adds a separate entry of the source. Like-named read-outs stand apart in the source and are kept apart here.
# Tests used:
# [1] = tested on: AMPT rat model of Parkinson's disease; assay: AMPT rat model of Parkinson's disease (catalepsy descent latency and centre rearing counts); assay type: in vivo; details: for Mean Catalepsy Descent Latency (s) / Mean Centre Rearing Counts: 8 h post AMPT; for reversal of AMPT induced deficits in mean centre rearing counts (in words) / reversal of AMPT induced catalepsy (in words): single oral dose 10 mg/kg, -16 or -1 hours
# Description: AMPT is a competitive inhibitor of tyrosine hydroxylase. Rats dosed with >150 mg/kg AMPT develop parkinsonian-like behavior and locomotor deficits (e.g. catalepsy and reduced rearing activity) within hours owing to the depletion of striatal dopamine concentration as a consequence of the reduced flux through the dopamine synthetic pathway. […] Indian J. Exp. Biol. 41, 1264-1268).
# The effect was compared with appropriate vehicle control groups (oral vehicle was 1% carboxymethylcellulose; CMC) and a group that received a 150 mg/kg i.p. dose of L-dopa.
# Eight hours after AMPT (or vehicle) administration rats were assessed for catalepsy and centre rearing activity. During the catalepsy test, the front paws of the rat were placed over a horizontal bar suspended 9 cm off the floor. The time taken for the rat to get off the bar (descent latency) was measured with a maximum time of 3 minutes being allowed. Centre rearing counts were determined over a 1 hour monitoring period using an automated activity monitoring system (AM1053). This system used an array of infrared beams to determine the activity and mobility of each animal. Each cage had 48 infrared beams, 24 on each of two levels arranged in an 8×16, 1″ (25.4 mm) pitch grid. The lower grid measured horizontal x, y movement, whilst the upper grid measured rearing movement. The activity detector operated by counting the number of times the beams changed from unbroken to broken and then incrementing the relevant counters.
# These groups were compared to a positive control group (6) dosed with 225 mg/kg AMPT i.p.+150 mg/kg L-dopa i.p. 6.5 hour post AMPT dose. L-dopa was administered with a peripheral dopa decarboxylase inhibitor (benserazide), at 100 mg/kg i.p.
# In a second and third series of experiments, the efficacy of eight other HPPD inhibitor test compounds were assessed in the AMPT rat model of Parkinson's disease (Tables 1.5 & 1.6). Male Sprague-Dawley rats (300-350 g) were administered a single i.p. dose of 225 mg/kg AMPT and a single oral dose of 10 mg/kg of the HPPD inhibitor test compound was administered either 1 or 16 hours prior to (−16 or −1 hours) AMPT administration. Behavioral assessment (catalepsy and centre rearing counts) was conducted 8 hours post AMPT administration. The effect was compared with a vehicle control group and a group receiving AMPT alone.
# [2] = biological target: T1, 4-hydroxyphenyl pyruvate dioxygenase (HPPD) (Rattus norvegicus, UniProt P32755); assay: Determination of 4-hydroxyphenyl pyruvate dioxygenase (HPPD) enzyme activity in vitro (rate of oxygen consumption, rat liver cytosol); assay type: biochemical; details: for inhibition at 0.1 µM: read-out: % Inhibition at 100 nM; for inhibition at 0.3 µM: read-out: % inhibition at 300 nM
# T1 construct: rat liver cytosol (2.7 mg of protein/ml incubate); from tissue; host or cells: rat liver (cytosol, 110,000 g supernatant)
# Description: The principle of the assay is that 4-hydroxyphenyl pyruvate dioxygenase (HPPD), an enzyme that participates in the catabolism of tyrosine, catalyses the oxidative decarboxylation and rearrangement of 4-hydroxyphenylpyruvate (HPPA) to homogentisate, with the incorporation of both atoms of molecular oxygen into the product.
# Rat liver was homogenised in buffer of the following composition; 0.25 M Sucrose, 5.4 mM EDTA, 20 mM Tris base, pH 7.4, (25% homogenate) using 6 passes of a Potter type homogeniser. The homogenate was then centrifuged at 1,800 g for 10 minutes at 4° C., the pellet was discarded and the supernatant centrifuged at 17,000 g for a further 15 minutes at 4° C. The pellet was then discarded and the supernatant centrifuged at 110,000 g for 80 minutes at 4° C. The supernatant containing the HPPD enzyme from this 110,000 g spin was collected and stored frozen at −70° C. and used in the assays of the test compounds (see below).
# Prior to the start of the enzymatic reaction by the addition of HPPA substrate, the enzyme and test compound (inhibitor) were incubated together for 3 minutes.
# In cases where the effects of several concentrations of an inhibitor were investigated, an IC50 value (the half-maximal inhibitory concentration of test compound) was determined by plotting the data using a non-linear regression curve-fitting program using a GraphPad Prism™ software package.
# Data are expressed as mean values from two experiments except where indicated. Where appropriate the values are expressed as the mean±standard deviation.
# plasma tyrosine = assay: Plasma tyrosine concentration kinetic profile in the rat following a single oral dose; assay type: in vivo; details: for Plasma Tyrosine Concentration: single oral dose 10 mg/kg; for Plasma tyrosine: single oral dose 2.0 mg/kg
# Description: The plasma tyrosine concentration kinetic profile in the rat was determined for each of the HPPD inhibitor test compounds by administering a single oral dose to 10-12 week old male Sprague Dawley rats. Compounds 3.20, 3.13 and 3.26 were dosed at 2 mg/kg in 1% carboxymethylcellulose (1% CMC) vehicle, whilst compounds 3.22, 3.12, 3.15, 3.18, 3.23, 3.21, 3.11, 3.01, 3.24 and 3.25 were administered at 10 mg/kg in 1% CMC.
# Blood samples to determine plasma tyrosine concentration were obtained at frequent intervals during the first 24 hours post-dose, and at 48 hours post-dose. These samples were either compared with blood samples obtained from control rats which only received an equivalent volume of the vehicle, 1% CMC, or by comparison with control samples obtained from the rats 1 hour prior to dosing with test the compound. Prior to the analysis of the samples for plasma tyrosine concentration, the blood samples were centrifuged at 1800 g for 10 minutes at 4° C. The plasma was collected and then filtered through a centrifugal micro partition device at 1500 g for 30 minutes at 4° C. The filtered plasma was then divided into two aliquots and stored frozen at −70° C. for subsequent gradient reverse phase high performance liquid chromatographic (HPLC) analysis of plasma tyrosine. Aliquots of plasma were analysed by HPLC using a 250×4.6 mm Hichrom S5ODS2 column at 30° C., eluted with a mobile phase of water/acetonitrile/trifluoroacetic acid (950:50:2 v/v/v) at a flow rate of 1 ml/min. Detection was by a diode array detector at 274 nm. Appropriate tyrosine standards were run alongside the samples for calibration purposes.
# The plasma tyrosine concentration kinetic profile for the test compounds 3.20, 3.13 and 3.26 are shown at the time points 1, 2, 4, 6, 12, 24 and 48 hours post-dose in Table 1.1. The data shown are the mean±standard deviation (n=4), except for the 6 hour time point where the data were obtained from n=3 rats for the control and 3.26 groups.
# The plasma tyrosine concentration kinetic profile for the test compounds 3.22, 3.12, 3.15, 3.18, 3.23, 3.21, 3.11, 3.01, 3.24 and 3.25 are shown at the time points −1 hour (pre-dose control), 1, 3, 6, 12, 24 and 48 hours post-dose, in Tables 1.2 and 1.3. The data shown are the mean±standard deviation (n=3), except for the −1 hour time point with compound 3.23, where n=2 (Table 1.2), and for the 3 and 6 hour time points with compound 3.21, where n=2 (Table 1.3).
# [3] = Table 1.5: 225 mg/kg AMPT i.p. + 10 mg/kg oral at -16 hours
# [4] = 100 nM test compound, rat liver cytosol, 3 min pre-incubation
# [5] = Table 1.6: 225 mg/kg AMPT i.p. + 10 mg/kg oral at -1 hour
# [6] = Table 1.6: 225 mg/kg AMPT i.p. + 10 mg/kg oral at -16 hours
# T1 sequence (P32755 whole entry): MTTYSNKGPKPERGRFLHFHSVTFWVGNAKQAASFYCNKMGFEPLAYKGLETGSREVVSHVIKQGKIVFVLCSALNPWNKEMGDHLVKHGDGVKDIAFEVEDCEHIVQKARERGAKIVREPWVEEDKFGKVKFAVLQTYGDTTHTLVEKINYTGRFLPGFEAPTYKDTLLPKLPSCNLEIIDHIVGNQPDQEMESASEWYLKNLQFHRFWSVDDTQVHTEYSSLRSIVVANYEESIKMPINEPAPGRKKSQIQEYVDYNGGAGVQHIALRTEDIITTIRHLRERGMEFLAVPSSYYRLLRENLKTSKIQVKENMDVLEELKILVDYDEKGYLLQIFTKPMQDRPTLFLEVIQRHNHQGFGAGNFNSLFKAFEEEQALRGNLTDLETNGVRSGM
"inhibition at 0.1 µM [2, 4] [%]",Compound,"Mean Catalepsy Descent Latency (s) [1, 3]","Mean Centre Rearing Counts [1, 3]",reversal of AMPT induced deficits in mean centre rearing counts (in words) [1],reversal of AMPT induced catalepsy (in words) ([1]; 10 mg/kg),Plasma Tyrosine Concentration (plasma tyrosine; 1 hour post-dose) [nmol/mL],Plasma Tyrosine Concentration (plasma tyrosine; 3 hours post-dose) [nmol/mL],Plasma Tyrosine Concentration (plasma tyrosine; 6 hours post-dose) [nmol/mL],Plasma Tyrosine Concentration (plasma tyrosine; 12 hours post-dose) [nmol/mL],Plasma Tyrosine Concentration (plasma tyrosine; 24 hours post-dose) [nmol/mL],Plasma Tyrosine Concentration (plasma tyrosine; 48 hours post-dose) [nmol/mL],"Mean Centre Rearing Counts [1, 5] [counts]",inhibition at 0.1 µM [2] [%],inhibition at 0.3 µM [2] [%],reversal of AMPT induced deficits in mean centre rearing counts (in words) ([1]; 10 mg/kg),also measured
24,CC1(C)C(=O)C(C(=O)c2ccc(C(F)(F)F)cc2[N+](=O)[O-])C(=O)C(C)(C)C1=O [Compound 3.23],10 ± 3.0^+++ s,273 ± 63 counts,either partially or completely reversing,substantially reversed; also recorded: effective in reversing,173 ± 22.0,307 ± 28.0,502 ± 37.5,1041 ± 88.5,1835 ± 444.1,299 ± 202.8,–,–,–,–,–
–,CS(=O)(=O)c1cc(C(F)(F)F)ccc1C(=O)c1cnoc1C1CC1 [Compound 3.01],–,–,either partially or completely reversing,substantially reversed; also recorded: effective in reversing,160 ± 7.4,276 ± 12.9,445 ± 32.9,666 ± 16.1,264 ± 23.5,110 ± 23.9,88 ± 26,8,36,–,–
–,CS(=O)(=O)c1ccc(C(=O)C2C(=O)CCCC2=O)c(Cl)c1COCC(F)(F)F [Compound 3.18],–,359 ± 116^+ counts,–,substantially reversed; also recorded: effective in reversing,177 ± 3.5,303 ± 3.9,504 ± 29.4,1027 ± 62.7,1987 ± 133.0,313 ± 216.6,–,31,–,reached statistical significance; also recorded: either partially or completely reversing,–
–,Cc1cc(C(=O)C2=C([O-])CCCC2=O)c(C)c2c1S(=O)(=O)CCC21OCCO1.[K+] [Compound 3.11],9 ± 2.7^+++ s,303 ± 53 counts,either partially or completely reversing,substantially reversed; also recorded: effective in reversing,193 ± 22.9,338 ± 48.9,551 ± 80.7,1041 ± 106.0,2125 ± 65.8,993 ± 260.6,–,9,45,–,–
–,Cc1c(C(=O)C2C=NN(C)C2=O)ccc(S(C)(=O)=O)c1C1=NOCC1 (stereo not shown) [Compound 3.20],–,–,–,substantially reversed; also recorded: effective in reversing,–,–,–,–,–,–,–,57,–,reached statistical significance; also recorded: either partially or completely reversing,"Mean Catalepsy Descent Latency (s) [1, 6]: 8 ± 1.8^+++ s; Mean Centre Rearing Counts [1, 6]: 409 ± 50^+++ counts; Plasma tyrosine (plasma tyrosine; 1 hour post-dose): 169 ± 13.6 nmol/mL; Plasma tyrosine (plasma tyrosine; 2 hours post-dose): 231 ± 30.2 nmol/mL; Plasma tyrosine (plasma tyrosine; 4 hours post-dose): 353 ± 50.9 nmol/mL; Plasma tyrosine (plasma tyrosine; 6 hours post-dose): 479 ± 40.0 nmol/mL; Plasma tyrosine (plasma tyrosine; 12 hours post-dose): 796 ± 44.3 nmol/mL; Plasma tyrosine (plasma tyrosine; 24 hours post-dose): 745 ± 171.8 nmol/mL; Plasma tyrosine (plasma tyrosine; 48 hours post-dose): 96 ± 1.7 nmol/mL"
37,CS(=O)(=O)c1cc(C(F)(F)F)ccc1C(=O)C(C#N)C(=O)C1CC1 (stereo not shown) [Compound 3.15],–,–,either partially or completely reversing,substantially reversed; also recorded: effective in reversing,177 ± 21.7,299 ± 18.8,458 ± 29.4,671 ± 119.7,228 ± 76.6,117 ± 11.3,199 ± 54,–,–,–,"Mean Catalepsy Descent Latency (s) [1, 5]: 23 ± 8.0^+++ s"
